Test results taken from ChEMBL document CHEMBL1123423, “Tranexamic acid derivatives with enhanced absorption” (J Med Chem, 1986).

Experiments:
[1] = Half-life in buffer at pH 7.5; format: ADME
[2] = Half-life in buffer at pH 1.2; format: ADME
Rattus norvegicus [3] = assay: Compound was evaluated for percent tranexamic acid recovered in rat urine within 24 hr after oral administration of 0.1 mmol/kg of body weight per mole of pro drug; format: ADME, organism-based; conditions: in vivo
Rattus norvegicus [4] = assay: Compound was evaluated for percent recovery of tranexamic acid in urine from rat within 24 hr after oral administration of the dose […] of body weight; format: ADME, organism-based; conditions: in vivo
Rattus norvegicus [5] = assay: Compound was evaluated for percent recovery of tranexamic acid in urine from rat within 24 hr after oral administration of the dose 1 mmol/kg of body weight; format: ADME, organism-based; conditions: in vivo
[6] = Half-life in 90% human heparinized plasma.; format: ADME
Rattus norvegicus [7] = assay: Compound was evaluated for percent tranexamic acid recovered in rat urine within 24 hr after oral administration of per moiety tranexamic acid; format: ADME, organism-based; conditions: in vivo
[8] = Half-life in phosphate buffer at pH 1.2; format: ADME
[9] = Half-life in phosphate buffer at pH 7.5; format: ADME
Rattus norvegicus [10] = assay: Compound was evaluated for percent tranexamic acid recovered in rat urine within 24 hr after oral administration of 0.1 mmol/kg of body weight.; format: ADME, organism-based; conditions: in vivo

Structure (SMILES) | half-life [1] [h] | half-life [2] [h] | Absorption (Rattus norvegicus [3]) [%] | half-life [6] [h] | Absorption (Rattus norvegicus [7]) [%] | also measured
CC(OC(=O)C(C)C)OC(=O)[C@H]1CC[C@H](CN)CC1.Cl (stereo partly specified) | 140 | 22 | 71 | – | – | –
CC(C)OC(=O)OC(C)OC(=O)[C@H]1CC[C@H](CN)CC1.Cl (stereo partly specified) | 144 | 58 | 43 | – | – | Recovery (Rattus norvegicus [4]): 43%; Recovery (Rattus norvegicus [5]): 86%
CC(OC(=O)C(C)(C)C)OC(=O)[C@H]1CC[C@H](CN)CC1.Cl (stereo partly specified) | – | – | 43 | – | – | –
C[C@]1(CN)CC[C@H](C(=O)OCOC(=O)[C@H]2CC[C@H](CN)CC2)CC1.Cl.Cl | 26 | 31 | 50 | 0.025 | 25 | Recovery (Rattus norvegicus [4]): 25%; Recovery (Rattus norvegicus [5]): 32%
CCOC(=O)C(OC(=O)[C@H]1CC[C@H](CN)CC1)OC(=O)[C@H]1CC[C@](C)(CN)CC1.Cl.Cl (stereo partly specified) | 0.9 | 11 | 62 | – | 31 | –
CC(OC(=O)[C@H]1CC[C@H](CN)CC1)OC(=O)[C@H]1CC[C@](C)(CN)CC1.Cl.Cl (stereo partly specified) | – | – | 42 | – | 21 | –
CC(=O)OC(C)OC(=O)[C@H]1CC[C@H](CN)CC1.Cl (stereo partly specified) | 68 | 14 | 59 | 0.1 | – | –
CCN(CC)C(=O)C(OC(=O)[C@H]1CC[C@H](CN)CC1)OC(=O)[C@H]1CC[C@](C)(CN)CC1.Cl.Cl (stereo partly specified) | – | – | 34 | – | 17 | –
CC(C)(C)C(=O)NCOC(=O)[C@H]1CC[C@H](CN)CC1.Cl | 10 | 2 | 22 | – | – | –
Cc1oc(=O)oc1COC(=O)[C@H]1CC[C@H](CN)CC1.Cl | – | – | 67 | – | – | half-life [8]: 25 h; half-life [9]: 2 h
CCOC(=O)OC(C)OC(=O)[C@H]1CC[C@H](CN)CC1.Cl (stereo partly specified) | 90 | 54 | 50 | 0.025 | – | Recovery (Rattus norvegicus [4]): 50%; Recovery (Rattus norvegicus [5]): 62%
Cl.NCc1ccc(C(=O)OCOC(=O)[C@H]2CC[C@H](CN)CC2)cc1 | – | – | 35 | – | – | –
Cl.NC[C@H]1CC[C@H](C(=O)OC2OC(=O)c3ccccc32)CC1 (stereo partly specified) | – | – | 44 | – | – | Recovery (Rattus norvegicus [4]): 44%; Recovery (Rattus norvegicus [5]): 54%; half-life [9]: 5 h
CCOC(=O)[C@H]1CC[C@H](CN)CC1.Cl | – | – | – | 4 | – | Absorption (Rattus norvegicus [10]): 92%
CC(C)C(=O)OCOC(=O)[C@H]1CC[C@H](CN)CC1.Cl | 36 | 18 | 54 | 0.00833 | – | –
C[C@]1(CN)CC[C@H](C(=O)OCc2oc(=O)oc2COC(=O)[C@H]2CC[C@H](CN)CC2)CC1.Cl.Cl | – | – | 54 | – | 27 | –
CN(C)C(=O)C(OC(=O)[C@H]1CC[C@H](CN)CC1)OC(=O)[C@H]1CC[C@](C)(CN)CC1.Cl.Cl (stereo partly specified) | 6.7 | 38 | 54 | – | 27 | –
CC(C)(C)C(=O)OCOC(=O)[C@H]1CC[C@H](CN)CC1.Cl | 147 | 164 | 36 | 0.0333 | – | Recovery (Rattus norvegicus [4]): 36%; Recovery (Rattus norvegicus [5]): 58%
CCC(OC(=O)[C@H]1CC[C@H](CN)CC1)OC(=O)[C@H]1CC[C@](C)(CN)CC1.Cl.Cl (stereo partly specified) | 70 | 29 | 26 | 0.1 | 13 | –
Cl.NC[C@H]1CC[C@H](C(=O)Oc2ccc(CCC(=O)O)cc2)CC1 [CETRAXATE HYDROCHLORIDE] | – | – | 28 | – | – | –
NC[C@H]1CC[C@H](C(=O)O)CC1 [TRANEXAMIC ACID] | – | – | – | – | – | Recovery (Rattus norvegicus [5]): 11%; Absorption (Rattus norvegicus [10]): 22%
